# Measurements from patent EP4635500A1, “THERAPEUTIC AGENT FOR BACTERIAL INFECTION” (Sumitomo Pharma Co., Ltd., priority 2022, dated 2024).
# Read-outs that look alike come from different tables or passages of the source. Marks after values point to notes of the source that are not given here.
# How the values were obtained:
# [1] = system: anaerobic bacteria; experiment: microbe, parasite or virus in culture; format: cell-based
# [2] = system: anaerobic bacteria; settings: cited from earlier work
# [3] = biological target: KPC-2 (Klebsiella pneumoniae, UniProt Q9F663); experiment: Ki,app against β-lactamase (Example 1, Table 1); format: biochemical
# Experimental: (§1) After stirring, the resultants were preincubated for 30 minutes at 37°C. The reporter substrate solution was incubated at 37°C for 15 minutes or more, dispensed at 100 µL/well, and measured for a change in absorbance by a microplate reader at 37°C. For each measured concentration of the positive control and the inhibitor, an initial rate (µmol/L/sec) was determined from a time to be analyzed and a change in product amount. […] Ki,app for each inhibitor concentration was calculated from the slope, the inhibitor concentration, an enzyme concentration, Km, and kcat using Expression 2. If the initial rate was determined at two or more concentrations for each inhibitor and a plurality of Ki,app could be obtained, an average value was used as the Ki,app for the inhibitor. t−tc = Km /Vmax x ([Inhibitor]/Ki,app)x Ln[S]0 /[S] [formula] Ki,app = [Inhibitor]x Km /(kcatx[Enzyme])x 1/slope [formula]
# (§2) The experiment was performed in duplicate.
# [4] = biological target: OXA-23 (Acinetobacter baumannii, UniProt Q9L4P2); experiment: Ki,app against β-lactamase (Example 1, Table 1); format: biochemical
# Experimental: as §1, §2
# [5] = biological target: OXA-48 (Klebsiella pneumoniae, UniProt Q6XEC0); experiment: Ki,app against β-lactamase (Example 1, Table 1); format: biochemical
# Experimental: as §1, §2
# [6] = biological target: KPC-38 (Klebsiella pneumoniae, UniProt Q9F663); format: biochemical; settings: read-out: Ki app; KPC-38, class A; 30 min preincubation; n.d.: too low inhibitor activity at 100 µmol/L
# Experimental: as §1, §2
# [7] = biological target: KPC-3 (Klebsiella pneumoniae, UniProt Q9F663, H272Y); experiment: biochemical; format: biochemical
# Experimental: as §1, §2
# [8] = biological target: OXA-24 (Acinetobacter baumannii, UniProt Q8RLA6); experiment: Ki,app against β-lactamase (Example 1, Table 1); format: biochemical; settings: OXA-24, class D; 30 min preincubation; n.d.: too low inhibitor activity at 100 µmol/L
# Experimental: as §1, §2
# [9] = biological target: KPC-6 (Klebsiella pneumoniae, UniProt Q9F663, V239G); experiment: biochemical
# Experimental: as §1, §2
# [10] = biological target: KPC-8 (Klebsiella pneumoniae, UniProt Q9F663, H272Y/V239G); experiment: biochemical
# Experimental: as §1, §2
# [11] = biological target: OXA-65 (Acinetobacter baumannii, UniProt Q58XD3); experiment: Ki,app against β-lactamase (Example 1, Table 1); format: biochemical; settings: OXA-65, class D; 30 min preincubation; n.d.: too low inhibitor activity at 100 µmol/L
# Experimental: as §1, §2
# [12] = biological target: OXA-66 (Acinetobacter baumannii, UniProt Q58XD2); experiment: Ki,app against β-lactamase (Example 1, Table 1); format: biochemical; settings: OXA-66, class D; 30 min preincubation; n.d.: too low inhibitor activity at 100 µmol/L
# Experimental: as §1, §2
# [13] = biological target: OXA-72 (Acinetobacter baumannii, UniProt Q5XQU0); experiment: Ki,app against β-lactamase (Example 1, Table 1); format: biochemical; settings: OXA-72, class D; 30 min preincubation; n.d.: too low inhibitor activity at 100 µmol/L; *: value from one of three experiments
# Experimental: as §1, §2
# [14] = biological target: CTX-M-14 (Escherichia coli, UniProt Q9L5C7); experiment: Ki,app against β-lactamase (Example 1, Table 1); format: biochemical; settings: CTX-M-14, class A; 30 min preincubation; n.d.: too low inhibitor activity at 100 µmol/L
# Experimental: as §1, §2
# [15] = biological target: CTX-M-27 (Escherichia coli, UniProt Q840M4); experiment: Ki,app against β-lactamase (Example 1, Table 1); format: biochemical; settings: CTX-M-27, class A; 30 min preincubation; n.d.: too low inhibitor activity at 100 µmol/L
# Experimental: as §1, §2
# [16] = biological target: SHV-12 (Klebsiella pneumoniae, UniProt P0A3M1, L31Q); experiment: Ki,app against β-lactamase (Example 1, Table 1); format: biochemical; settings: SHV-12, class A; 30 min preincubation; n.d.: too low inhibitor activity at 100 µmol/L
# Experimental: as §1, §2
# [17] = biological target: PDC-11 (Pseudomonas aeruginosa, UniProt P24735, form not given, species not given); format: biochemical; settings: PDC-11, class C; 30 min preincubation; n.d.: too low inhibitor activity at 100 µmol/L; read-out: Ki app
# Experimental: as §1, §2
# [18] = biological target: KPC-31 (Klebsiella pneumoniae, UniProt Q9F663, D178Y/H272Y); experiment: biochemical
# Experimental: as §1, §2
# [19] = biological target: KPC-33 (Klebsiella pneumoniae, UniProt Q9F663, D178Y); experiment: biochemical
# Experimental: as §1, §2
# [20] = KPC-2, class A, 30 min preincubation, n.d.: too low inhibitor activity at 100 µmol/L, read-out: Ki app
# [21] = KPC-3, class A, 30 min preincubation, n.d.: too low inhibitor activity at 100 µmol/L, read-out: Ki app
structure (smiles),measurement,setting,value
Cc1ncc([N+](=O)[O-])n1CCO [MNZ],MIC,"[1]; ATCC29328, Finegoldia magna ATCC 29328, read-out: MIC",2 mg/L
same,MIC,"[1]; ATCC43055, Eggerthella lenta ATCC 43055, read-out: MIC",1 mg/L
same,MIC,"[1]; ATCC43255, Clostridioides difficile ATCC 43255, read-out: MIC",1 mg/L
same,MIC,"[1]; ATCCBAA1803, Clostridioides difficile ATCC BAA-1803, read-out: MIC",2 mg/L
same,MIC,"[1]; ATCCBAA1870, Clostridioides difficile ATCC BAA-1870, read-out: MIC",1 mg/L
same,MIC,"[1]; Bacteroides fragilis, ATCC25285",1 mg/L
same,MIC,[1]; Bacteroides ovatus,1 mg/L
same,MIC,"[1]; Bacteroides thetaiotaomicron KUB2984, read-out: MIC",1 mg/L
same,MIC,"[1]; Bacteroides thetaiotaomicron, ATCC29741",2 mg/L
same,MIC,"[1]; Clostridium perfringens, ATCC13124",2 mg/L
same,MIC,"[1]; Cutibacterium acnes, ATCC11827",> 64 mg/L
same,MIC,"[1]; Fusobacterium nucleatum, ATCC25586",≤ 0.125 mg/L
same,MIC,"[1]; Fusobacterium varium, ATCC27725",0.5 mg/L
same,MIC,[1]; Lancefieldella rimae,1 mg/L
same,MIC,[1]; Olsenella uli,4 mg/L
same,MIC,"[1]; Parvimonas micra KUB3000, read-out: MIC",0.5 mg/L
same,MIC,"[1]; Peptoniphilus asaccharolyticus, ATCC14963",1 mg/L
same,MIC,"[1]; Peptostreptococcus anaerobius, ATCC27337",0.5 mg/L
same,MIC,[1]; Prevotella histicola,2 mg/L
same,MIC,[1]; Prevotella intermedia,1 mg/L
same,MIC,[1]; Prevotella melaninogenica,1 mg/L
same,MIC,"[1]; Schaalia odontolytica, ATCC17929",> 64 mg/L
same,MIC,[1]; Segatella buccae,2 mg/L
same,Acceptable MIC range of quality control (QC) strain,[2]; Bacteroides fragilis ATCC 25285 (QC strain),1 (0.25 to 1)* µg/mL
same,Acceptable MIC range of quality control (QC) strain,[2]; Bacteroides thetaiotaomicron ATCC 29741 (QC strain),2 (0.5 to 2)* µg/mL
"O=C(O)[C@H]1/C(=C/CO)O[C@@H]2CC(=O)N21 [Clavulanate, clavulanate]",Ki,[3],0.0767 ± 0.0383 µM
same,Ki,[4],0.394 ± 0.169 µM
same,Ki,"[5]; OXA-48, class D, 30 min preincubation, n.d.: too low inhibitor activity at 100 µmol/L, read-out: Ki app",0.103 ± 0.0365 µM
same,Ki,[6],0.0782 ± 0.0205 µM
same,Ki,[7],0.128 ± 0.0532 µM
"C[C@]1(Cn2ccnn2)[C@H](C(=O)O)N2C(=O)C[C@H]2S1(=O)=O [Tazobactam, tazobactam]",Ki,[3]; [20],0.159 µM
same,Ki,[8],0.1 ± 0.0456 µM
same,Ki,[6],0.112 ± 0.0145 µM
same,Ki,[7]; [21],0.27 ± 0.0808 µM
same,Ki,[9],0.0799 ± 0.0165 µM
same,Ki,[10],0.052 ± 0.0118 µM
"CC1(C)[C@H](C(=O)O)N2C(=O)C[C@H]2S1(=O)=O [Sulbactam, sulbactam]",Ki,[3],0.42 ± 0.0992 µM
same,Ki,[4],0.681 ± 0.0743 µM
same,Ki,[5],0.264 ± 0.116 µM
same,Ki,[6],0.405 ± 0.0996 µM
same,Ki,[7],0.674 ± 0.239 µM
"NC(=O)[C@@H]1CC[C@@H]2CN1C(=O)N2OS(=O)(=O)O [Avibactam, avibactam]",Ki,[11],5.9 ± 1.05 µM
same,Ki,[12],7.35 ± 0.963 µM
same,Ki,[13],0.691 ± 0.0638 µM
"O=C(O)C[C@@H]1CC[C@H](NC(=O)Cc2cccs2)B(O)O1 [Vaborbactam, vaborbactam]",Ki,[14],0.392 ± 0.0203 µM
same,Ki,[15],0.351 ± 0.0287 µM
same,Ki,[3]; [20],0.0637 µM
same,Ki,[16],0.755 ± 0.103 µM
same,Ki,[6],0.0483 µM
same,Ki,[17],3.86 ± 0.163 µM
same,Ki,[7]; [21],0.0883 ± 0.0303 µM
same,Ki,[18],13.3 ± 8.59 µM
same,Ki,[19],4.6 ± 0.437 µM
same,Ki,[9],0.109 ± 0.0217 µM
same,Ki,[10],0.114 ± 0.0221 µM
